Source: patent EP4803087A1, “METHOD FOR PRODUCING LIPOSOME COMPOSITION, AND LIPOSOME COMPOSITION” (FUJIFILM Corporation, priority 2023, dated 2025)
Counter-ions that a name gives are not always drawn.

Key:
[1] = Measurement of saturated solubility of gemcitabine hydrochloride (HPLC, 272 nm); assay type: physicochemical; conditions: 55 °C, aqueous buffer, thermodynamic from solid, phosphate buffer and water
Procedure: 0.95 g of disodium hydrogen phosphate dihydrate, 0.15 g of sodium dihydrogen phosphate dihydrate, and 51.1 g of water were put into a 100 mL plastic container and dissolved to produce a buffer containing no sodium chloride.
3.4 g of gemcitabine hydrochloride was put into 5.8 g of this buffer and 8.1 g of water, and the mixture was stirred at 55°C for 2 hours. 5 mL of this supernatant was collected, and the filtrate obtained by filtration was used as a sample solution.
0.95 g of disodium hydrogen phosphate dihydrate, 0.15 g of sodium dihydrogen phosphate dihydrate, 5.4 g of sodium chloride, and 67.7 g of water were put into a 100 mL plastic container and dissolved to produce a buffer containing sodium chloride.
3.4 g of gemcitabine hydrochloride was put into 7.4 g of this buffer and 8.1 g of water, and the mixture was stirred at 55°C for 2 hours. 5 mL of this supernatant was collected, and the filtrate obtained by filtration was used as a sample solution.
This sample solution was quantified by HPLC at a detection wavelength of 272 nm, and the saturated solubility of 90 mg/mL in the presence of sodium chloride was obtained.

[2] = Dissolution of gemcitabine hydrochloride in the loading tank at production scale (visual confirmation); assay type: physicochemical; set-up: time after which complete dissolution could not be confirmed: dose or concentration left out as unconfirmed; conditions: jacket 56°C
Procedure: In order to prevent the powder of gemcitabine hydrochloride having high pharmacological activity from being exposed to the operator, the following work was performed in an isolator that could completely isolate the work from the outside. […] In this case, the extension tube was closed by a pinch valve. 1,452 g of water for injection at room temperature was put into the plastic bag to wash the burette, and gemcitabine hydrochloride was dispersed. A tube extended from a sealed tank (hereinafter, a loading tank) made of SUS316L with a temperature control jacket installed outside the isolator and the plastic bag was connected, and the gemcitabine hydrochloride aqueous dispersion liquid was put into the loading tank. A solution consisting of 17.0 g of disodium hydrogen phosphate dihydrate, 2.7 g of sodium dihydrogen phosphate dihydrate, and 1,106.6 g of water for injection was put into the loading tank from the plastic bag to wash out the gemcitabine hydrochloride remaining in the plastic bag, the extension tube, and the like. By cutting the extension tube while pinching and crimping the extension tube, the gemcitabine hydrochloride of the highly pharmaceutically active substance could be safely put into the loading tank without scattering from the isolator or the loading tank. […]

solubility at 2 h ([1]; in the absence of sodium chloride, stirred at 55°C for 2 hours (imitating Example 1)): 156 mg/mL
solubility at 2 h ([1]; in the presence of sodium chloride, stirred at 55°C for 2 hours (imitating Comparative Example 1)): 90 mg/mL
time after which complete dissolution could not be confirmed ([2]; Comparative Example 1: sodium chloride present, 200 rpm, downward flow, sodium hydroxide added): > 1 h
time after the temperature rise until gemcitabine hydrochloride was completely dissolved ([2]; Example 1: no sodium chloride, 305 g scale, liquid 54°C, 400 rpm, upward flow): about 15 minutes
Compound: Nc1ccn([C@@H]2O[C@H](CO)[C@@H](O)C2(F)F)c(=O)n1 [gemcitabine hydrochloride, Gemcitabine hydrochloride]
